Where two headings read alike, the source gives them in different places.
Legend:
hEBI2 = hEBI2 (Homo sapiens, UniProt P32249); test: aequorin assay, hEBI2 stably transfected CHO-AeqGα16 cells; assay type: cell-based; parameters: expressed in transfected cells; host or cells: CHO-K1 expressing apoaequorin (CHO-Aeq) with Gqi5; line E2
Protocol: Stable cell line expressing human EBI2 (in pcDNA3.1 vector) and Gα16 was generated with parental CHO cells that stably express apo-aequorin (Euroscreen CHO-A12 cell line). The cells were seeded into 384 well black clear bottom plates (Greiner Bio-one) at 10,000 cells/25 μl well in F12 medium containing 3% FBS and incubated overnight. Coelenterazine (20 μM final) was added into the cell plates at 25 μl/well. The cell plates were returned to incubator for 3 hrs. The compounds were diluted 1:20 into an intermediate plate with Tyrode buffer (130 mM NaCl, 2 mM CaCl2, 5 mM NaHCO3, 5 mM KCl, 1 mM MgCl2, 20 mM HEPES, pH 7.4). 12.5 μl/well of pre-diluted compounds were transfered into the cell assay plate and read on LumiLux™ (Perkin Elmer) for flash luminescence.
An algorithm similar to area under curve (AUC) was created in house to analyze the aequorin kinetic data, which was named Slope Threshold (Slope 100). The algorithm defines the beginning and the end of the luminescence intensity peak by comparing the difference in intensity of each time point with an earlier time point, and determining if the difference exceeds a defined threshold, which was usually set at 100. If it does, then the intensity of the later time point is added into the Slope Threshold's sum.

[1] = test system: EBV-infected human B cells; test: chemotaxis trans well assay; assay type: cell-based; conditions: 3 hr migration
Protocol: (§1) B cells (RS11846 or EBV-infected human B-cells) or murine bone marrow-derived dendritic cells were washed once with medium and resuspended at 1×10^6/ml. 100 μl of this suspension was added into the wells of the filter plate and gently placed into the receiver plate containing 150 μl of a given compound dilution. The final DMSO concentration was less then 0.1%. After migration for 3 hr at 37° C. in an incubator, the filter plate was carefully removed from the receiver plate and discarded. The migrated cells in the receiver plate were resuspended and transferred into round-bottom 96-well plate, centrifuged and resuspended in 100 μl PBS containing 2% FCS and 0.1% NaN3 (FACS buffer). The input cells (100 μl) were similarly processed. For the calculation of the specific migration, a fixed number of beads (10000; Invitrogen #PCB100)) in 20 μl FACS buffer was added and the suspension was analyzed by flow cytometry using a FACS instrument PAS™ (Partec). Cells were identified based on their forward scatter (FSC) and side scatter (SSC) pattern. Chemotaxis is expressed either as total cell number or as percent of input cells.
Human peripheral B lymphocytes (PBL) were prepared from peripheral blood as a cell suspension by centrifugation on Ficoll plaque. PBL were rinsed in PBS and resuspended in complete RPMI 1640 medium (10% FCS and antibiotics) at the concentration of 2×10^7/cell/ml. […]

RS11846 cells = test: chemotaxis 96 transwell assay; assay type: cell-based; conditions: 3 hr migration
Protocol: as §1

[2] = test system: 26 GPCR binding assays, 9 GPCR functional assays, 40 kinase assays, ion channels, proteases, transporter and enzyme assays; conditions: data not shown
Source text: So far oxysterols have been noted to have various physiological activities namely regulate the expression of genes that participate in both sterol and fat metabolism, serve as substrates for the synthesis of bile acids, and are intermediates in the transfer of sterols from the periphery to the liver (Russell, D. W. (2000). Oxysterol biosynthetic enzymes. Biochim. Biophys. Acta 1529, 126-135). […] This included binding assays for 26 different GPCRs, functional assays of 9 different GPCRs, 40 kinase assays, as well as selected ion channels, proteases, transporter and enzyme assays.

[3] = test system: mouse bone marrow-derived dendritic cells (wild type); test: chemotaxis assay, wild type dendritic cells; assay type: cell-based
Protocol: as §1
(§2) In order to generate sufficient numbers of dendritic cells (DC) we isolated bone marrow from wild type and EBI2-deficient mice (Deltagen) and treated them in culture for 7-8 days with murine IL4 and murine GM-CSF. […]

[4] = test system: bone marrow-derived dendritic cells from EBI2(−/−) mice; test: chemotaxis assay, EBI2(−/−) dendritic cells; assay type: cell-based, mouse
Protocol: as §1, §2

mouse EBI2 receptor = target: T1, mouse EBI2 receptor (Mus musculus, UniProt Q3U6B2); test: aequorin assay, mouse EBI2 CHO-Aeq cells; assay type: cell-based
T1 construct: expressed in transfected cells; host or cells: CHO-K1 expressing apoaequorin (CHO-Aeq), Gqi5 or Gα16 background
Source text: Human EBI2 gene was cloned using RT-PCR from HL-60 cDNA and corresponded to the Genbank accession number NP_004942. The human EBI2 was inserted into the pEFIN3 vector at the EcoRI and XbaI sites in the multiple cloning site. Mouse EBI2 was cloned using RT-PCR from mouse genomic DNA and corresponded to the Genbank accession number Q3U6B2. The mouse EBI2 was inserted into the pEFIN3 vector at the EcoRI and XbaI sites in the multiple cloning site. Plasmids expressing human and mouse EBI2 were stably transfected in CHO-K1 and HEK293 cells expressing the apoaequorin (CHO-Aeq and HEK-Aeq) (Table 1). mRNA sequence integrity of EBI2 gene was checked using RT-PCR at T0 & T30 culture times in CHO cells.
We also confirmed activation of hEBI2 by 7b,25DHC in different CHO-Aeq cell backgrounds (Gqi5 and Gα16 (=WTA11)) (FIG. 14). […] Finally, we confirmed activation of hEBI2 by 7b,25DHC with hEBi2-HEK-Aeq Gα16 cells (pCAeqG9) and hEBi2 transiently transfected in HEK T cells (data not shown).

Chain of hEBI2 (P32249 whole entry): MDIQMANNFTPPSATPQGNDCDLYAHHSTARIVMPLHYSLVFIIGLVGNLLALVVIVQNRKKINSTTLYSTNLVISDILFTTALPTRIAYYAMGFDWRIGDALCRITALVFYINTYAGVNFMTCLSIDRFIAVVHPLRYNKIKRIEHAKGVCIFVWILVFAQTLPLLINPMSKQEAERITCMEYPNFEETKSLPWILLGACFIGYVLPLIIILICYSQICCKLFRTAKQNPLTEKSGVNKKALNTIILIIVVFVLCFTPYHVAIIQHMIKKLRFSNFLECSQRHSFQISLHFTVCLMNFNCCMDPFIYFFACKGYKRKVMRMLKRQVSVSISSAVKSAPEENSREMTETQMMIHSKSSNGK
T1 sequence (Q3U6B2 whole entry): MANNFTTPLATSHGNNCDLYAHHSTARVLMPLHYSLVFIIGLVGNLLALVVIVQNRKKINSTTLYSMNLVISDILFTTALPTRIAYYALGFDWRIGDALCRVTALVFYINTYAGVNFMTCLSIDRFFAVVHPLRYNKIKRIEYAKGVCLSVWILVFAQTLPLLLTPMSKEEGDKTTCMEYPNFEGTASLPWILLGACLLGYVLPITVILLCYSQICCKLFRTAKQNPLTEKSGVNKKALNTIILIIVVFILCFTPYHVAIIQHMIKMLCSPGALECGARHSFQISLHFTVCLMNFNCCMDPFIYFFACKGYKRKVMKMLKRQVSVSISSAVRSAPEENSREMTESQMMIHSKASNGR

Row | Compound | EC50 (hEBI2) [µM] | attraction (migration) of EBV-infected B cells [1] | attraction (migration) of RS11846 cells (RS11846 cells) | interaction in safety panel [2] | migration of DCs from wild type animals towards compound [3] | migration of DCs from EBI2(−/−) mice towards compound [4] | EC50 (hEBI2; CHO-AeqGα16, read-out: EC50, activation of EBI2 (aequorin)) [µM] | activation of mouse EBI2 receptor (mouse EBI2 receptor)
1 | C[C@H](CCCC(C)(C)O)[C@H]1CC[C@H]2[C@@H]3[C@H](O)C=C4C[C@@H](O)CC[C@]4(C)[C@H]3CC[C@]12C [7a,25DHC, cholest-5-ene-3b,7a,25-triol] | 0.0184 | potently attract | potently attract | In none of these assay did we see a significant interaction | migrate | do not migrate |  | 
2 | C[C@H](CCCC(C)(C)O)[C@H]1CC[C@H]2[C@@H]3[C@@H](O)C=C4C[C@@H](O)CC[C@]4(C)[C@H]3CC[C@]12C [7b,25DHC, cholest-5-ene-3b,7b,25-triol] |  |  |  |  |  |  | 0.398 | activation

Source: patent US8497075B2, “Methods of identifying a modulator that inhibits the binding between Epstein-Barr virus induced receptor 2 and cholesterol derived ligands” (Novartis AG, priority 2008, dated 2013)
